One assay has as its system HCV type 1b replicon in Huh-7 luc/neo (Huh-Luc) cells. Kind of assay: HCV replicon assay (Huh-Luc cells, luciferase read-out). In kind it is cell-based. Particulars: Hepatitis C virus, Huh-7, 72 h, inhibition of HCV replication, three days incubation, luciferase activity. An excerpt:
The in vitro antiviral activity against HCV of the compounds of formula I can be tested in a cellular HCV replicon system based on Lohmann et al. (1999) Science 285:110-113, with the further modifications described by Krieger et al. (2001) Journal of Virology 75: 4614-4624 (incorporated herein by reference), which is further exemplified in the examples section. This model, while not a complete infection model for HCV, is widely accepted as the most robust and efficient model of autonomous HCV RNA replication currently available. It will be appreciated that it is important to distinguish between compounds that specifically interfere with HCV functions from those that exert cytotoxic or cytostatic effects in the HCV replicon model, and as a consequence cause a decrease in HCV RNA or linked reporter enzyme concentration. Assays are known in the field for the evaluation of cellular cytotoxicity based for example on the activity of mitochondrial enzymes using fluorogenic redox dyes such as resazurin. Furthermore, cellular counter screens exist for the evaluation of non-selective inhibition of linked reporter gene activity, such as firefly luciferase. Appropriate cell types can be equipped by stable transfection with a luciferase reporter gene whose expression is dependent on a constitutively active gene promoter, and such cells can be used as a counter-screen to eliminate non-selective inhibitors.
The compounds of formula I may be examined for activity in the inhibition of HCV RNA replication in a cellular assay aimed at identifying compounds that inhibit a HCV functional cellular replicating cell line, also known as HCV replicons. A suitable cellular assay is based on a bicistronic expression construct, as described by Lohmann et al. (1999), Science vol. 285 pp. 110-113 with modifications described by Krieger et al. (2001), Journal of Virology 75: 4614-4624, in a multi-target screening strategy.
The assay utilizes the stably transfected cell line Huh-7 luc/neo (hereafter referred to as Huh-Luc). This cell line harbors an RNA encoding a bicistronic expression construct comprising the wild type NS3-NS5B regions of HCV type 1b translated from an Internal Ribosome Entry Site (IRES) from encephalomyocarditis virus (EMCV), preceded by a reporter portion (FfL-luciferase), and a selectable marker portion (neo^R, neomycine phosphotransferase). The construct is bordered by 5′ and 3′ NTRs (non-translated regions) from HCV type 1b. Continued culture of the replicon cells in the presence of G418 (neo^R) is dependent on the replication of the HCV RNA. The stably transfected replicon cells that express HCV RNA, which replicates autonomously and to high levels, encoding inter alia luciferase, are used for screening the antiviral compounds.
The replicon cells are plated in 384 well plates in the presence of the test and control compounds which are added in various concentrations. Following an incubation of three days, HCV replication is measured by assaying luciferase activity (using standard luciferase assay substrates and reagents and a Perkin Elmer ViewLux™ ultraHTS microplate imager). Replicon cells in the control cultures have high luciferase expression in the absence of any inhibitor. The inhibitory activity of a compound on luciferase activity is monitored on the Huh-Luc cells, enabling a dose-response curve for each test compound. EC50 values are then calculated, which value represents the amount of the compound required to decrease the level of detected luciferase activity by 50%, or more specifically, the ability of the genetically linked HCV replicon RNA to replicate.
Background: In antiviral work, replicon cells carry a viral genome segment that copies itself.
For `CCCOC(=O)[C@H](C)NP(=O)(OC[C@H]1O[C@@H](n2ccc(=O)[nH]c2=O)[C@](C)(N)[C@@H]1O)Oc1ccccc1` (single isomer, unassigned) [Example 24A], the EC50 (as a rule, the concentration giving half of the maximal effect) amounted to 2900 nM.

Consider `C[C@@]1(N)[C@H](O)[C@@H](CO)O[C@H]1n1ccc(=O)[nH]c1=O` [Example 1, 1-((2R,3R,4S,5R)-3-amino-4-hydroxy-5-(hydroxymethyl)-3-methyltetrahydrofuran-2-yl)pyrimidine-2,4(1H,3H)-dione], for which the EC50 was over 50000 nM.

The assay is the same for the next values; noted with them: inhibition of HCV replication, three days incubation, luciferase activity.
As for `CCC(CC)COC(=O)[C@H](C)NP(=O)(OC[C@H]1O[C@@H](n2ccc(=O)[nH]c2=O)[C@](C)(N)[C@@H]1O)Oc1ccccc1` (single isomer, unassigned) [Example 20B], the concentration for a half-maximal effect (EC50) amounted to 400 nM.

Take `CC[C@@H](C)OC(=O)[C@H](C)NP(=O)(OC[C@H]1O[C@@H](n2ccc(=O)[nH]c2=O)[C@](C)(N)[C@@H]1O)Oc1ccccc1` (single isomer, unassigned) [Example 21A]: the EC50 came out at 5100 nM.

For the compound `CC[C@@H](C)OC(=O)[C@H](C)NP(=O)(OC[C@H]1O[C@@H](n2ccc(=O)[nH]c2=O)[C@](C)(N)[C@@H]1O)Oc1ccccc1` (single isomer, unassigned) [Example 21B], the EC50 was 740 nM.

On to `CC[C@@H](C)OC(=O)[C@H](C)NP(=O)(OC[C@H]1O[C@@H](n2ccc(=O)[nH]c2=O)[C@](C)(N)[C@@H]1O)Oc1ccccc1` (single isomer, unassigned) [Example 22A], for which the half-maximal effective concentration (EC50) is 21000 nM.

As for `CC[C@@H](C)OC(=O)[C@H](C)NP(=O)(OC[C@H]1O[C@@H](n2ccc(=O)[nH]c2=O)[C@](C)(N)[C@@H]1O)Oc1ccccc1` (single isomer, unassigned) [Example 22B], the EC50 was determined as 660 nM.

`CCCOC(=O)[C@H](C)NP(=O)(OC[C@H]1O[C@@H](n2ccc(=O)[nH]c2=O)[C@](C)(N)[C@@H]1O)Oc1ccccc1` (single isomer, unassigned) [Example 24B]: the EC50 amounted to 1500 nM.

For `CCC[C@H](C)OC(=O)[C@@H](C)NP(=O)(OC[C@H]1O[C@@H](n2ccc(=O)[nH]c2=O)[C@](C)(N)[C@@H]1O)Oc1ccccc1` (single isomer, unassigned) [Example 25A], the concentration for a half-maximal effect (EC50) turned out to be 4700 nM.

Take `CCC[C@H](C)OC(=O)[C@@H](C)NP(=O)(OC[C@H]1O[C@@H](n2ccc(=O)[nH]c2=O)[C@](C)(N)[C@@H]1O)Oc1ccccc1` (single isomer, unassigned) [Example 25B]: the concentration giving a half-maximal response (EC50) was 380 nM.

In the case of `C[C@H](NP(=O)(OC[C@H]1O[C@@H](n2ccc(=O)[nH]c2=O)[C@](C)(N)[C@@H]1O)Oc1ccccc1)C(=O)OCC1CC1` (single isomer, unassigned) [Example 26A], the concentration for a half-maximal effect (EC50) came to 1700 nM.

Turning to `C[C@H](NP(=O)(OC[C@H]1O[C@@H](n2ccc(=O)[nH]c2=O)[C@](C)(N)[C@@H]1O)Oc1ccccc1)C(=O)OCC1CC1` (single isomer, unassigned) [Example 26B], the concentration giving a half-maximal response (EC50) worked out at 760 nM.

On to `C[C@H](NP(=O)(OC[C@H]1O[C@@H](n2ccc(=O)[nH]c2=O)[C@](C)(N)[C@@H]1O)Oc1ccccc1)C(=O)OCC1CCCC1` (single isomer, unassigned) [Example 27A], for which the concentration giving a half-maximal response (EC50) was 2200 nM.

For the compound `C[C@H](NP(=O)(OC[C@H]1O[C@@H](n2ccc(=O)[nH]c2=O)[C@](C)(N)[C@@H]1O)Oc1ccccc1)C(=O)OCC1CCCC1` (single isomer, unassigned) [Example 27B], the half-maximal effective concentration (EC50) came out at 380 nM.

For the compound `CCC(CC)OC(=O)[C@H](C)NP(=O)(OC[C@H]1O[C@@H](n2ccc(=O)[nH]c2=O)[C@](C)(N)[C@@H]1O)Oc1ccccc1` (single isomer, unassigned) [Example 28A], the concentration for a half-maximal effect (EC50) was determined as 34000 nM.

Consider `CCC(CC)OC(=O)[C@H](C)NP(=O)(OC[C@H]1O[C@@H](n2ccc(=O)[nH]c2=O)[C@](C)(N)[C@@H]1O)Oc1ccccc1` (single isomer, unassigned) [Example 28B], for which the 50% effective concentration (EC50) came out at 480 nM.

Take `CC(C)OC(=O)[C@H](C)NP(=O)(OC[C@H]1O[C@@H](n2ccc(=O)[nH]c2=O)[C@](C)(N)[C@@H]1O)Oc1ccccc1` (stereo partly shown) [Example 2]: the EC50 is 2000 nM.

For the compound `C[C@@]1(N)[C@H](O)[C@@H](COP(=O)(O)O)O[C@H]1n1ccc(=O)[nH]c1=O` [Example 4, ((2R,3S,4R,5R)-4-amino-5-(2,4-dioxo-3,4-dihydropyrimidin-1(2H)-yl)-3-hydroxy-4-methyltetrahydrofuran-2-yl)methyl dihydrogen Phosphate], the EC50 is over 50000 nM.

In the next assay the target is T1, HCV NS5B-21 (Hepatitis C virus genotype 1b, UniProt Q9WMX2).
T1 construct: HCV NS5B-21 (21-aminoacid C-terminally truncated version); purchased Replizyme
Kind of assay: HCV NS5B-21 enzyme assay (SPA, 3H-ATP incorporation). In kind it is biochemical. The conditions noted are these: HCV NS5B-21 SPA enzyme assay, triphosphate tested. The procedure:
It is this triphosphate which is believed to be the antivirally active species. The enzyme assay described here example may be used to confirm that compounds of the invention are antivirally active as the 5′-triphosphate metabolite.
The enzyme assay measures the inhibitory effect of triphosphate compounds in an HCV NS5B-21 (21-aminoacid C-terminally truncated version) SPA assay (scintillation proximity assay). The assay is performed by evaluating the amount of radiolabelled ATP incorporated by HCV NS5B-21 into newly synthesized RNA using an heterogeneous biotinylated RNA template.
To determine IC50 values the compounds are tested at various concentrations in a final volume of 100 μl of reaction mixture. The reaction is stopped by addition of 0.5M EDTA solution. The samples are transferred into flashplates precoated with streptavidin. The incorporated radioactivity is quantified using a scintillation counter (Wallac Microbeta Trilux).
The assay should include enzyme controls (about four, containing 1 μl DMSO instead of inhibitor) and background control containing all ingredients except template.
Compounds are serially diluted in DMSO on a separate dilution plate to 100× the final desired assay concentrations. […]
Incubate the plate over night and read the flash plate in the Microbeta Trilux using the protocol Flash plates H3. […]
IC50 is determined using Graphpad Prism. […]
On to `C[C@@]1(N)[C@H](O)[C@@H](COP(=O)(O)OP(=O)(O)OP(=O)(O)O)O[C@H]1n1ccc(=O)[nH]c1=O` [Example 3, potassium ((2R,3S,4R,5R)-4-amino-5-(2,4-dioxo-3,4-dihydropyrimidin-1(2H)-yl)-3-hydroxy-4-methyltetrahydrofuran-2-yl)methyl triphosphate], for which the half-inhibitory concentration (IC50) (in general, the point on the concentration scale where inhibition reaches its midpoint) is 13 µM.

(Values after patent US20130143835A1, “HCV Polymerase Inhibitors” (MEDIVIR AB, priority 2011, published 2013).)
